Where “and” joins values, the source holds several entries; their conditions need not be identical. Equal values may be shown once.
How the values were obtained:
CYP2B6 = tested on: CYP2B6; design: method as in PMID 23132334; settings: in vitro; cited from earlier work
CYP1A2 = tested on: CYP1A2; design: method as in PMID 23132334; settings: in vitro; cited from earlier work
[1] = DTG steady-state plasma pharmacokinetics, interaction with TPV/r
Experimental: Two studies were conducted in healthy volunteer subjects as judged by physical exam, medical history and laboratory testing. These studies are registered with ClinicalTrials.gov (NCT01068925; protocol number ING113096 and NCT01098526; protocol number ING114005). Adult men and women of non-childbearing potential were enrolled. Subjects were excluded if they tested positive for HIV or hepatitis C antibodies or hepatitis B surface antigen. Subjects were not allowed to receive any prescription or non-prescription drugs, including vitamins or herbal products, within 7 days of dosing and throughout the study.
This was a phase I, open-label, single-sequence, three-period, steady-state study. Eighteen subjects received DTG 50 mg q24h for 5 days (period 1). […] There was no washout between treatment periods. All doses were administered with a moderate-fat meal.
Dolutegravir and EFV were measured in plasma samples using validated methods, which consisted of extraction from plasma by protein precipitation with acetonitrile containing [^15N^2H7]dolutegravir or [^2H4]-efavirenz as the internal standards, respectively. The plasma extracts were injected onto a 2.1 × 50 mm 3.5-micron XBridge™ C18 column (Waters Associates, Milford, MA, USA). Dolutegravir was eluted with a mobile phase consisting of 40 % acetonitrile in aqueous 0.1 % formic acid, and EFV was eluted with a mobile phase consisting of acetonitrile/0.1 % formic acid (65 % v/v) in a 5-mM ammonium acetate buffer containing 0.1 % acetic acid (35 % v/v). The eluates were detected by using a Sciex API 4000™ (AB Sciex, Framingham, MA, USA) equipped with a TurboIonSpray® ionisation source with multiple reaction monitoring (DTG positive ion mode m/z 420 > 277; internal standard m/z 428 > 277; EFV negative ion mode m/z 314 > 243; internal standard m/z 318 > 247). Data acquisition and processing were performed with Analyst 1.4.2 software (AB Sciex), and linear regression analysis calculations were performed using the Study Management System, SMS™ 2000 v.2.2 (GlaxoSmithKline, Research Triangle Park, NC, USA). The calibration range for DTG was 0.020 to 20 μg/mL and for EFV was 0.10 to 20 μg/mL. Quality control samples prepared separately at three concentrations were stored with study samples and analysed with each batch of samples against separately prepared calibration standards.
A non-compartmental PK analysis of the concentration-time data was performed with WinNonlin (version 5.2, Pharsight Corporation, Mountain View, CA, USA). Plasma PK parameters for both DTG and EFV were calculated using actual recorded times for each treatment. Parameters that were determined included AUC from time zero to the end of the dosage interval (AUC(0–τ)), maximum observed plasma concentration (C max), the time of maximum observed plasma concentration (T max) and plasma concentration at the end of the dosing interval (C τ).
Statistical analyses were performed on the log-transformed PK parameters: AUC(0–τ), C τ and C max. […] Efavirenz PK data were compared with historical data. Subject was fitted as a random effect and treatment was fitted as a fixed effect in the model. The ratio of geometric least-squares means and associated 90 % confidence intervals were estimated for the PK parameters of interest.

[2] = cited from earlier work
[3] = design: method as in PMID 19884365; settings: healthy subjects; cited from earlier work
[4] = both, human, plasma, oral, 50 mg
[5] = co-administration with TPV/r 500/200 mg q12h

GLS mean ratio (90 % CI) of AUC(0–τ) ([1]; DTG+TPV/r vs DTG alone, n=14): 0.409 (0.379, 0.443) | GLS mean ratio (90 % CI) of C max ([1]; DTG+TPV/r vs DTG alone, n=14): 0.535 (0.500, 0.572) | GLS mean ratio (90 % CI) of C τ ([1]; DTG+TPV/r vs DTG alone, n=14): 0.239 (0.212, 0.270) | Tmax ([1]; both, human, in vivo, 50 mg): 3 h | AUC [1, 4]: 64500 ng·h/mL | Cmax [1, 4]: 4530 ng/mL | concentration at 24 h [1, 4]: 1480 ng/mL | decrease in plasma DTG AUC(0–τ) [1, 5]: 59% | decrease in plasma DTG C max [1, 5]: 46% | decrease in plasma DTG C τ [1, 5]: 76% and 75%
SMILES: C[C@@H]1CCO[C@H]2Cn3cc(C(=O)NCc4ccc(F)cc4F)c(=O)c(O)c3C(=O)N12 [DTG, Dolutegravir]
induction of CYP2B6 (CYP2B6): not an inducer | induction of CYP1A2 (CYP1A2): not an inducer | C0 ([2]; DTG 50 mg once daily without inducers, phase III studies in INI-naive populations): approximately 1.2 μg/mL | C0 (equivalent to C τ), geometric mean ([2]; VIKING-3, DTG 50 mg twice daily with EFV and TPV/r in background regimens, n=18, CV 63 %): 1620 ng/mL | C0 higher than with DTG 50 mg once daily without inducers ([2]; VIKING-3, DTG 50 mg twice daily with EFV and TPV/r in background regimens, n=18): 35% | effect on midazolam exposure [3]: no significant effect
